Tests used:
[1] = Lipophilicity (logP) of Compound 1; type: physicochemical
[2] = Aqueous solubility of Compound 1; type: physicochemical; details: under acidic to neutral conditions

logP [1]: 5.2
aqueous solubility [2]: low aqueous solubility
Compound: Cn1c(=O)n(CCCO)c(=O)c2c1nc(Oc1cccc(OC(F)(F)F)c1)n2Cc1ccc(Cl)cc1 [Compound 1, 7-(4-chlorobenzyl)-1-(3-hydroxypropyl)-3-methyl-8-(3-(trifluoromethoxy)-phenoxy)-3,7-dihydro-1H-purine-2,6-dione]

From patent US20240261290A1, “PHARMACEUTICAL COMPOSITION COMPRISING 7-(4-CHLOROBENZYL)-1-(3-HYDROXYPROPYL)-3-METHYL-8-(3-(TRIFLUOROMETHOXY)-PHENOXY)-3,7-DIHYDRO-1H-PURINE-2,6-DIONE” (Boehringer Ingelheim International GmbH, priority 2023, published 2024)
